Values of other authors, collected in publication PMC7465391, “1,4-Disubstituted 1,2,3-Triazoles as Amide Bond Surrogates for the Stabilisation of Linear Peptides with Biological Activity” (Molecules, 2020).
Read-outs that look alike come from different tables or passages of the source.

Experiments:
cathepsin L = target: cathepsin L
Excerpt: (§1) Table 7 Sequences of CatS1–2 and CatK1–2 and their reported biological properties. | column: Ki for CatL, pH 5.5 [nM] ^b || The Lalmanach group explored the stabilisation of peptidic inhibitors for cathepsin K and S [99]. These two proteins are cysteine proteases normally present in lysosomes and share a high homology. When found in the extracellular matrix, these enzymes are often overexpressed and dysregulated, making them innovative targets for new therapies for a range of medical conditions. Cathepsin K is considered as a target involved in osteoporosis whereas cathepsin S has been identified to play a role in autoimmune diseases and neuropathic pain [100, 101]. One strategy to identify inhibitors for prot ... || Another set of investigated peptidomimetics was based on a bradykinin-derived substrate, previously reported to be degraded by cathepsin K [103].

cathepsin K = target: cathepsin K
Excerpt: as §1, with “CatK,” for “CatL,”

Row | Ki (cathepsin L; pH 5.5, 37 °C, substrate Z-Phe-Arg-AMC, mean ± SEM of three experiments, read-out: Ki for CatL, pH 5.5) | Ki (cathepsin K; reversible inhibition, read-out: Ki cathepsin K) | Ki (cathepsin L; reversible inhibition, read-out: Ki cathepsin L) | Ki (cathepsin K; pH 5.5, 37 °C, substrate Z-Phe-Arg-AMC, mean ± SEM of three experiments, read-out: Ki for CatK, pH 5.5) | Substance
1 | 22 µM | 0.8 µM | – | – | Abz-Arg-Pro-Pro-GlyΨ[Tz]Phe-Ser-Pro-Phe-Arg-Tyr(3-NO2)-NH2 [CatK1, triazolo-peptidomimetic of a bradykinin-derived cathepsin K substrate]
2 | – | – | 30 µM | 10 µM | Ac-Gly-Arg-Trp-His-Pro-Met-GlyΨ[Tz]Ala-Pro-Trp-Glu-D-Ala-D-Arg-NH2 [CatS1]
